# What was measured:
# [1] = target: Estrogen Receptor (ERα) in MCF-7 cells (Homo sapiens (Human), UniProt P03372); assay: MCF-7 ER down-regulation assay (immuno-fluorescence); assay type: cell-based; details: for % downregulation: shown in brackets where not >90%
# [2] = Thermodynamic solubility (shake flask); assay type: physicochemical; details: aqueous phosphate buffer, 25 °C, pH 7.4, aqueous buffer, thermodynamic from solid, aqueous phosphate buffer pH 7.4, 24 hours
# [3] = Human plasma protein binding (equilibrium dialysis); assay type: in vitro ADME; details: dialysis 18 hours
# physchem = details: 1-octanol/aqueous buffer, pH 7.4
# Estrogen Receptor (ERα) in MCF-7 cells, sequence (P03372 whole entry): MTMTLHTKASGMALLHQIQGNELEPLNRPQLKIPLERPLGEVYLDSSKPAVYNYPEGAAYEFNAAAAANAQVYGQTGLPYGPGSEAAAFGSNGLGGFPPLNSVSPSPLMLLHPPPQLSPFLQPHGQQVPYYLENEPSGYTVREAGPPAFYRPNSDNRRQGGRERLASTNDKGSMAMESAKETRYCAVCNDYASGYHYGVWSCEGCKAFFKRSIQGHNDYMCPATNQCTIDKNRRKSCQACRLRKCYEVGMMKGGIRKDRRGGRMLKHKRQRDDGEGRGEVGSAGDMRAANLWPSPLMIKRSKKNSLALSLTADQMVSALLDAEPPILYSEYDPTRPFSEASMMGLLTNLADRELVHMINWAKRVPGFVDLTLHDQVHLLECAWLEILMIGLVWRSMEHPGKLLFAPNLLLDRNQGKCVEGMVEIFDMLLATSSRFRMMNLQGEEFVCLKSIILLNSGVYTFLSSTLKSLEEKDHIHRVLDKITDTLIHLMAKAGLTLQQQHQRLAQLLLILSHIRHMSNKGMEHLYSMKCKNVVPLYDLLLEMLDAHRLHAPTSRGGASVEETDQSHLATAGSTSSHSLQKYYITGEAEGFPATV
Compound,IC50 ([1]; 18-22 hours incubation) [nM],% downregulation [1],solubility at 24 h [2] [µM],Human plasma protein binding (% free) [3] [% free],logD (physchem),"DC50 ([1]; 18-22 hours incubation, read-out: ER down regulation IC50 value) [nM]"
"C[C@H](COc1ccc([C@@H]2c3[nH]c4ccccc4c3C[C@@H](C)N2CC2(F)COC2)cc1)NCCCF [Example 28, 3-fluoro-N-((R)-1-(4-((1R,3R)-2-((3-fluorooxetan-3-yl)methyl)-3-methyl-2,3,4,9-tetrahydro-1H-pyrido[3,4-b]indol-1-yl)phenoxy)propan-2-yl)propan-1-amine]",11,(48%),354,2.7,2.9,–
"C[C@@H]1Cc2c([nH]c3ccccc23)[C@@H](c2ccc(OCCNCCCF)cn2)N1CC1(F)CC1 [Example 31, 3-fluoro-N-(2-((6-((1S,3R)-2-((1-fluorocyclopropyl)methyl)-3-methyl-2,3,4,9-tetrahydro-1H-pyrido[3,4-b]indol-1-yl)pyridin-3-yl)oxy)ethyl)propan-1-amine]",22,(89%),554,5.3,2.7,–
"C[C@@H]1Cc2c([nH]c3ccccc23)[C@@H](c2ccc(OCCNCCCF)cn2)N1CC1(F)COC1 [Example 32, 3-fluoro-N-(2-((6-((1S,3R)-2-((3-fluorooxetan-3-yl)methyl)-3-methyl-2,3,4,9-tetrahydro-1H-pyrido[3,4-b]indol-1-yl)pyridin-3-yl)oxy)ethyl)propan-1-amine]",41,–,980,16,2.1,–
"C[C@@H]1Cc2c([nH]c3ccccc23)[C@@H](c2ccc(OCCNCCCF)nc2)N1CC1(F)CC1 [Example 33, 3-fluoro-N-(2-((5-((1R,3R)-2-((1-fluorocyclopropyl)methyl)-3-methyl-2,3,4,9-tetrahydro-1H-pyrido[3,4-b]indol-1-yl)pyridin-2-yl)oxy)ethyl)propan-1-amine]",3.3,(87%),244,3.0,3,–
"C[C@@H]1Cc2c([nH]c3ccccc23)[C@@H](c2ccc(OCCNCCCF)nc2)N1CC1(F)COC1 [Example 34, 3-fluoro-N-(2-((5-((1R,3R)-2-((3-fluorooxetan-3-yl)methyl)-3-methyl-2,3,4,9-tetrahydro-1H-pyrido[3,4-b]indol-1-yl)pyridin-2-yl)oxy)ethyl)propan-1-amine]",6.2,–,787,11,2.5,–
"COc1cc(OCCNCCCF)ncc1[C@@H]1c2[nH]c3ccccc3c2C[C@@H](C)N1CC1(F)CC1 [Example 37, 3-fluoro-N-(2-((5-((1R,3R)-2-((1-fluorocyclopropyl)methyl)-3-methyl-2,3,4,9-tetrahydro-1H-pyrido[3,4-b]indol-1-yl)-4-methoxypyridin-2-yl)oxy)ethyl)propan-1-amine]",0.51,–,877,8.5,2.4,–
"C[C@@H]1Cc2c([nH]c3ccccc23)[C@@H](c2ncc(OCCNCCCF)cn2)N1CC(C)(C)F [Example 39, 3-fluoro-N-(2-((2-((1S,3R)-2-(2-fluoro-2-methylpropyl)-3-methyl-2,3,4,9-tetrahydro-1H-pyrido[3,4-b]indol-1-yl)pyrimidin-5-yl)oxy)ethyl)propan-1-amine]",230,–,328,7.2,2.5,–
"C[C@@H]1Cc2c([nH]c3ccccc23)[C@@H](c2ccc(OCCNCCCF)cc2)N1CC(C)(F)F [Example 57, N-(2-(4-((1R,3R)-2-(2,2-difluoropropyl)-3-methyl-2,3,4,9-tetrahydro-1H-pyrido[3,4-b]indol-1-yl)phenoxy)ethyl)-3-fluoropropan-1-amine]",0.27,–,35,0.41,4,–
"COc1cc(NCCNCCCF)ccc1[C@@H]1c2[nH]c3ccccc3c2C[C@@H](C)N1CC(F)(F)CO [Example 59, 2,2-difluoro-3-((1R,3R)-1-(4-((2-((3-fluoropropyl)amino)ethyl)amino)-2-methoxyphenyl)-3-methyl-1,3,4,9-tetrahydro-2H-pyrido[3,4-b]indol-2-yl)propan-1-ol]",0.25,–,853,2.8,2.9,–
"COc1cc(NCCNCCCF)ccc1[C@@H]1c2[nH]c3ccccc3c2C[C@@H](C)N1CC1(F)CC1 [Example 60, N1-(4-((1R,3R)-2-((1-fluorocyclopropyl)methyl)-3-methyl-2,3,4,9-tetrahydro-1H-pyrido[3,4-b]indol-1-yl)-3-methoxyphenyl)-N2-(3-fluoropropyl)ethane-1,2-diamine]",1.8,–,760,7.8,2.9,–
"COc1cc(NCCNCCCF)ccc1[C@@H]1c2[nH]c3ccccc3c2C[C@@H](C)N1CC(F)F [Example 61, N1-(4-((1R,3R)-2-(2,2-difluoroethyl)-3-methyl-2,3,4,9-tetrahydro-1H-pyrido[3,4-b]indol-1-yl)-3-methoxyphenyl)-N2-(3-fluoropropyl)ethane-1,2-diamine]",0.24,–,24,1.3,3.4,–
"C[C@@H]1Cc2c([nH]c3ccccc23)[C@@H](c2cnc(OCCNCCCF)cc2F)N1CC1(F)COC1 [Example 62, 3-fluoro-N-(2-((4-fluoro-5-((1R,3R)-2-((3-fluorooxetan-3-yl)methyl)-3-methyl-2,3,4,9-tetrahydro-1H-pyrido[3,4-b]indol-1-yl)pyridin-2-yl)oxy)ethyl)propan-1-amine]",–,–,587,13,2.7,3.9
"Cc1cc(OCCNCCCF)ncc1[C@@H]1c2[nH]c3ccccc3c2C[C@@H](C)N1CC(F)F [Example 63, N-(2-((5-((1R,3R)-2-(2,2-difluoroethyl)-3-methyl-2,3,4,9-tetrahydro-1H-pyrido[3,4-b]indol-1-yl)-4-methylpyridin-2-yl)oxy)ethyl)-3-fluoropropan-1-amine]",1.8,–,268,1.4,> 3.6,–
"COc1cc(NCCNCCCF)ncc1[C@@H]1c2[nH]c3ccccc3c2C[C@@H](C)N1CC1(F)COC1 [Example 66, N1-(5-((1R,3R)-2-((3-fluorooxetan-3-yl)methyl)-3-methyl-2,3,4,9-tetrahydro-1H-pyrido[3,4-b]indol-1-yl)-4-methoxypyridin-2-yl)-N2-(3-fluoropropyl)ethane-1,2-diamine]",1,–,> 1000,20,2,–
"C[C@@H]1Cc2c([nH]c3ccccc23)[C@@H](c2cnc(OCCNCCCF)cn2)N1CC(F)(F)CO [Example 69, 2,2-difluoro-3-((1S,3R)-1-(5-(2-((3-fluoropropyl)amino)ethoxy)pyrazin-2-yl)-3-methyl-1,3,4,9-tetrahydro-2H-pyrido[3,4-b]indol-2-yl)propan-1-ol]",0.54,–,820,15,2,–

# Reference: US10149839B2, “Chemical compounds” (AstraZeneca AB, priority 2016, dated 2018)
